According to article PMC10101933 (European journal of medicinal chemistry, 2023):

Experiments:
[1] = tested on: Nrf2 target genes (GSTM3, HMOX1 and NQO1); assay: RT-qPCR of Nrf2-ARE regulated genes in NCM460D cells; format: cell-based; conditions: 100 μM; for induction of the Nrf2 target genes (HMOX1, GSTM3, NQO1), in words: vs GAPDH and HPRT housekeeping genes
[2] = biological target: T1, Keap1 Kelch domain protein (Homo sapiens, UniProt Q14145); assay: Time-resolved fluorescence resonance energy transfer; format: binding
T1 sequence (Q14145 321-609 limits assumed): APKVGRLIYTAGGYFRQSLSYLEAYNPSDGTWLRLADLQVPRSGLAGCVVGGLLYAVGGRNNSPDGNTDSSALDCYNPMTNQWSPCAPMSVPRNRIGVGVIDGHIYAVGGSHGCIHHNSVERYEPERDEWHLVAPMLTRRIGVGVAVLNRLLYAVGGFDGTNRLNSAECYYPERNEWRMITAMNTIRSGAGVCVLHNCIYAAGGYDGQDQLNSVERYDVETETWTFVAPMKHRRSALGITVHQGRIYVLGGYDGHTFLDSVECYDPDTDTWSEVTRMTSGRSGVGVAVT

[3] = biological target: T1, Keap1 Kelch domain protein; assay: Fluorescence polarization; format: binding

COc1ccc(-c2cc(N(CC(=O)O)S(=O)(=O)c3ccc(OC)cc3)c3ccccc3c2N(CC(=O)O)S(=O)(=O)c2ccc(OC)cc2)cc1 [Compound 12b, 2,2’-((2-(4-Methoxyphenyl)naphthalene-1,4-diyl)bis(((4-methoxyphenyl)sulfonyl)azanediyl))diacetic acid]
induction of the Nrf2 target genes (HMOX1, GSTM3, NQO1), in words [1]: significant induction

COc1ccc(S(=O)(=O)N(CC(=O)O)c2cc(-c3ccc(C#N)cc3)c(N(CC(=O)O)S(=O)(=O)c3ccc(OC)cc3)c3ccccc23)cc1 [Compound 12c, 2,2’-((2-(4-Cyanophenyl)naphthalene-1,4-diyl)bis(((4-methoxyphenyl)sulfonyl)azanediyl))diacetic acid]
induction of the Nrf2 target genes (HMOX1, GSTM3, NQO1), in words [1]: no induction

COc1ccc(S(=O)(=O)N(CC(=O)O)c2cc(-c3ccc(N4C(=O)c5ccccc5C4=O)cc3)c(N(CC(=O)O)S(=O)(=O)c3ccc(OC)cc3)c3ccccc23)cc1 [Compound 12d, 2,2’-((2-(4-(1,3-Dioxoisoindolin-2-yl)phenyl)naphthalene-1,4-diyl)bis(((4-methoxyphenyl)sulfonyl)azanediyl))diacetic acid]
induction of the Nrf2 target genes (HMOX1, GSTM3, NQO1), in words [1]: significant induction

COc1ccc(S(=O)(=O)N(CC(N)=O)c2cc(CCC(=O)O)c(N(CC(N)=O)S(=O)(=O)c3ccc(OC)cc3)c3ccccc23)cc1 [Compound 17a, 3-(1,4-Bis((N-(2-amino-2-oxoethyl)-4-methoxyphenyl)sulfonamido)naphthalen-2-yl)propanoic acid]
fold decrease in potency relative to 2a ([2]; as indicated by TR-FRET IC50 and Ki): 3 fold

COc1ccc(S(=O)(=O)N(CC(=O)O)c2cc(CCC(=O)N3CCOCC3)c(N(CC(=O)O)S(=O)(=O)c3ccc(OC)cc3)c3ccccc23)cc1 [Compound 17c, 2,2’-((2-(3-Morpholino-3-oxopropyl)naphthalene-1,4-diyl)bis(((4-methoxyphenyl)sulfonyl)azanediyl))diacetic acid]
fold increase in binding affinity vs 17b ([2]; as indicated by the TR-FRET Ki): 2 fold | induction of the Nrf2 target genes (HMOX1, GSTM3, NQO1), in words [1]: significant induction

COc1ccc(S(=O)(=O)N(CC(=O)O)c2cc(CCC(N)=O)c(N(CC(=O)O)S(=O)(=O)c3ccc(OC)cc3)c3ccccc23)cc1 [Compound 21, 2,2’-((2-(3-Amino-3-oxopropyl)naphthalene-1,4-diyl)bis(((4-methoxyphenyl)sulfonyl)azanediyl))diacetic acid]
fold drop in inhibitory activity vs 2a ([2]; as indicated by the Ki value from the TR-FRET assay): ~2 fold

COc1ccc(S(=O)(=O)N(CC(=O)O)c2cc(CCCN3C(=O)c4ccccc4C3=O)c(N(CC(=O)O)S(=O)(=O)c3ccc(OC)cc3)c3ccccc23)cc1 [Compound 24a, 2,2’-((2-(3-(1,3-Dioxoisoindolin-2-yl)propyl)naphthalene-1,4-diyl)bis(((4-methoxyphenyl)sulfonyl)azanediyl))diacetic acid]
Ki value (in words) ([2]; from TR-FRET assay): subnanomolar range | mRNA levels of GSTM3, HMOX1 and NQO1, fold vs vehicle (DMSO) control [1]: 2.4–11.7 fold | induction of the Nrf2 target genes (HMOX1, GSTM3, NQO1), in words [1]: significant induction

COc1ccc(S(=O)(=O)N(CC(=O)O)c2cc(CCCN(C)Cc3ccccc3)c(N(CC(=O)O)S(=O)(=O)c3ccc(OC)cc3)c3ccccc23)cc1 [Compound 24b, 2,2’-((2-(3-(Benzyl(methyl)amino)propyl)naphthalene-1,4-diyl)bis(((4-methoxyphenyl)sulfonyl)azanediyl))diacetic acid]
IC50 [3]: 276 ± 17 nM | fold reduction in potency vs 24a ([2]; TR-FRET assay): more than 20 fold
